Experiment [1] deals with Rattus norvegicus. The experiment in a line: Percentage change in volume of pleural fluid in the 5-h Evans Blue-Carrageenan pleural assay for Indomethacin 4.0 mg/kg. In kind it is functional.
The species named for experiment [2] is Rattus norvegicus. The experiment in a line: Percentage change in volume of pleural fluid in the 5-h Evans Blue-Carrageenan pleural assay for the compound. It is filed as functional.
The subject of experiment [3] is Rattus norvegicus. The experiment in a line: Oral antiinflammatory activity, measured in rats at the dose of 316 mg/kg. In kind it is functional.
Experiment [4] relates to Rattus norvegicus. The experiment in a line: Percentage change in volume of pleural fluid in the 5-h Evans Blue-Carrageenan pleural assay for the compound at dose 100 mg/kg. It is filed as functional.
In experiment [5] the test system is Rattus norvegicus. The experiment in a line: Percentage change in volume of pleural fluid in the 5-h Evans Blue-Carrageenan pleural assay for the compound at dose 4 mg/kg. In kind it is functional.
Experiment [6] relates to Rattus norvegicus. The experiment in a line: Percentage change in volume of pleural fluid in the 5-h Evans Blue-Carrageenan pleural assay for the compound at dose 20 mg/kg. In kind it is functional.
In experiment [7] the target is T1, Cyclooxygenase (Bos taurus, UniProt O62664+O62698).
T1 sequence (O62664 whole entry): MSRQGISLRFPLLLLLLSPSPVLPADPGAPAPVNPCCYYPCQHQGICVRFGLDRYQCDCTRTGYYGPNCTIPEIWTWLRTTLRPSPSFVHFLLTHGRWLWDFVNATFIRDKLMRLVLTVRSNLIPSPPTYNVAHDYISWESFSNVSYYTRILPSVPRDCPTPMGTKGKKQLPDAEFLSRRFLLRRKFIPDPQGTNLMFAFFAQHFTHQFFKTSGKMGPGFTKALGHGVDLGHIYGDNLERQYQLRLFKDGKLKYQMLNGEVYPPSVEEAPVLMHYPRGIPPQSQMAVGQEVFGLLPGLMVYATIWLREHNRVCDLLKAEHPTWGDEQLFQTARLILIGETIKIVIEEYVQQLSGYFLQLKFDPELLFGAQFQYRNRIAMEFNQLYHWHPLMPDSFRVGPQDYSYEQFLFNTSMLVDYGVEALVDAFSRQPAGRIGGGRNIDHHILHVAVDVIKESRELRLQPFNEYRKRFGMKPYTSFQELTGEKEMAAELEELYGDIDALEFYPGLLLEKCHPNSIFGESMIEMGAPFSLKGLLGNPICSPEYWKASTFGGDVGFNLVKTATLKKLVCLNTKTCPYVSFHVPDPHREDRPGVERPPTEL
T1 sequence (O62698 whole entry): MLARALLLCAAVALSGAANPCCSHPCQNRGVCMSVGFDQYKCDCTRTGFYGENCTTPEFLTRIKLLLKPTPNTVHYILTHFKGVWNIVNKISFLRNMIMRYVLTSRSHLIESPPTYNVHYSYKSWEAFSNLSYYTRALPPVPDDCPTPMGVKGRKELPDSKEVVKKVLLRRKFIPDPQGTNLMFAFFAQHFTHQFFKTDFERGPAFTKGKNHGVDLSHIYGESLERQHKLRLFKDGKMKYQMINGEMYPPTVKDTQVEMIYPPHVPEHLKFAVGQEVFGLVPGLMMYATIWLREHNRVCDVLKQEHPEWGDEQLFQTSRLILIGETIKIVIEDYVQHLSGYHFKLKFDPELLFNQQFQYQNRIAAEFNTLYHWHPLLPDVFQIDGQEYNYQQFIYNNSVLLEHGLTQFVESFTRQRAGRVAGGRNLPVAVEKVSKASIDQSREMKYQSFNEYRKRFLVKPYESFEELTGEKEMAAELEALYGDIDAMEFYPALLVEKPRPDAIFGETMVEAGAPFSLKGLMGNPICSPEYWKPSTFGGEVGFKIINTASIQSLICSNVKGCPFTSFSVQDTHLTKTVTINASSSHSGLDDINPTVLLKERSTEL
Description: Inhibition of PG synthetase activity obtained from bovine seminal vesicles

Experiment [8] concerns Rattus norvegicus. The experiment in a line: Percentage change in volume of pleural fluid in the 5-h Evans Blue-Carrageenan pleural assay for the compound at (100 mg/kg). In kind it is functional.
For experiment [9], the system named is Rattus norvegicus. The experiment in a line: Percentage change in volume of pleural fluid in the 5h- Evans Blue-Carrageenan pleural assay for the compound at dose 80 mg/kg. It is filed as functional.
The test system of experiment [10] is Rattus norvegicus. The experiment in a line: Percentage change in volume of pleural fluid in the 5-h Evans Blue-Carrageenan pleural assay for Indomethacin at dose 4.0 mg/kg. In kind it is functional.
The subject of experiment [11] is Rattus norvegicus. The experiment in a line: Percentage change in volume of pleural fluid in the 5-h Evans Blue-Carrageenan pleural assay for the compound at dose 100 m/kg. It is filed as functional.
Experiment [12] relates to Rattus norvegicus. The experiment in a line: Percentage change in volume of pleural fluid in the 5-h Evans Blue-Carrageenan pleural assay for the compound at dose 20 m/kg. It is filed as functional.
The subject of experiment [13] is Rattus norvegicus. The experiment in a line: Percentage change in volume of pleural fluid in the 5-h Evans Blue-Carrageenan pleural assay for the compound at dose 80 m/kg. It is filed as functional.
Experiment [14] deals with Rattus norvegicus. The experiment in a line: Relative Oral Anti inflammatory activity in the 5-h Evans Blue-Carrageenan pleural assay using indomethacin as reference compound; IA = inactive at 316 mg/kg. It is filed as functional, organism-based. More on the design: dose 316 mg/kg.

This is an account of results in ChEMBL document CHEMBL1122614, “Antiinflammatory activity of N-(2-benzoylphenyl)alanine derivatives” (J Med Chem, 1984).

Values joined by “and” are separate entries in the source; they are usually repeats but may differ in a detail not shown here. Identical values can stand only once. Active and inactive are the calls of the source. The rule behind the calls is not given here.

With `CN(CC(=O)O)c1ccccc1C(=O)c1ccccc1.Cl`, the figures for the Change in experiment [1] and in [2] were -38% and -13%, respectively.
On to `CC(Nc1ccccc1Oc1ccccc1)C(=O)O` (configuration not stated), for which, in experiment [3] (316 mg/kg), the Efficacy ratio was 1.18 and 1.52.
`CC(Nc1ccc(Cl)cc1C(=O)c1ccccc1)C(=O)O` (configuration not stated): the Change was -28% and -18% in [4] (100 mg/kg); 6% in experiment [5]. Besides, in experiment [3] (316 mg/kg), the Efficacy ratio was 1.96 and 1.57.
Turning to `CC(Nc1ccccc1C(=O)c1ccc(Cl)cc1Cl)C(=O)O` (configuration not stated), the Change in experiment [1] was -32%; in [4] it was -34%; in [5], -3%. Also, the Efficacy ratio in experiment [3] (316 mg/kg) was 1.44 and 1.52.
Turning to `Cc1ccc(C(=O)c2ccccc2)c(NC(C)C(=O)O)c1` (configuration not stated), the Change was -28% in [1] and -19% in experiment [6]. Moreover, the Efficacy ratio in [3] (316 mg/kg) was 1.88 and 1.46.
As to `CC(Nc1ccccc1C(=O)c1ccc(Br)cc1)C(=O)O` (configuration not stated), the Change in experiment [1] is -25%; in experiment [4] it was -29%; in [5], -3%. For the same molecule, the Efficacy ratio in [3] (316 mg/kg) was 1.43 and 1.46.
Consider `CC(C)Nc1ccccc1C(=O)c1ccccc1.Cl`, for which the Efficacy ratio in experiment [3] (316 mg/kg) was 1.13 and 1.46.
For orientation: IC50 means the concentration at which inhibition is half-maximal. Low readings indicate higher potency, high ones lower potency. As to `Cc1ccc2c(-c3ccccc3)nc(=O)n(C(C)C)c2c1` [PROQUAZONE], the IC50 in [7] was found to be 0.07 µM.
`CC(CNc1ccccc1C(=O)c1ccccc1)C(=O)O.Cl` (configuration not stated): the Efficacy ratio in experiment [3] (316 mg/kg) is 0.97 and 1.4.
Same read-out and setting: for `CC(Nc1ccc(Cl)cc1C(=O)c1ccc(Br)cc1)C(=O)O` (configuration not stated) the value was 1.1 and 1.57.
Regarding `COc1ccc(C(=O)c2ccccc2NC(C)C(=O)O)cc1` (configuration not stated), the Change is reported as -35% in experiment [1], -22% in experiment [4] and -9% in experiment [5]. The Efficacy ratio in experiment [3] (316 mg/kg) was 1.8 and 1.94.
With `Cc1ccc(C(=O)c2ccccc2NC(C)C(=O)O)cc1` (configuration not stated), the Change in experiment [1] was -35%; in experiment [4], -21%; in experiment [5], -8%. For the same molecule, the Efficacy ratio in [3] (316 mg/kg) was 1.39 and 1.52.
Regarding `CC(Nc1cccc(C(=O)c2ccccc2)c1)C(=O)O.Cl` (configuration not stated), the Change in [1] was -32%; in [8] it was -15%. In experiment [3] (316 mg/kg), the Efficacy ratio was 1.38 and 1.4.
For `O=C(O)CCNc1ccccc1C(=O)c1ccccc1`, the figures for the Change in experiment [1] and in [8] were -41% and -9%, respectively. Besides, the Efficacy ratio in experiment [3] (316 mg/kg) is 1.35 and 1.46.
On to `CC(Nc1ccccc1C(=O)c1ccc(Cl)cc1)C(=O)O` (configuration not stated), for which the Change in experiment [1] is -30%; in experiment [6] it was -5%; in experiment [9], -33%. The Efficacy ratio in [3] (316 mg/kg) is 1.62 and 1.42. In addition, in experiment [7], the concentration for half-maximal inhibition (IC50) amounted to 60 µM.
With `COc1ccc(NC(C)C(=O)O)c(C(=O)c2ccccc2)c1` (configuration not stated), the Efficacy ratio in experiment [3] (316 mg/kg) is 1.06 and 1.52.
On to `CC(Nc1ccc(C(=O)c2ccccc2)cc1)C(=O)O` (configuration not stated), for which the values for the Change in experiment [1] and in [8] were -31% and -4%, respectively. For the same molecule, in experiment [3] (316 mg/kg), the Efficacy ratio was 1.37 and 1.91.
Consider `CC(Nc1ccccc1C(=O)c1ccccc1)C(=O)O` (configuration not stated), for which the Change is -20% and -30% in [10] (4 mg/kg); -28% in experiment [11]; 4% in experiment [12]; -32% in [13]. Besides, the Efficacy ratio in experiment [3] (316 mg/kg) is 1.6 and 1.66.
`Cc1ccc2c(-c3ccccc3)nc(=O)n(C(C)C(=O)O)c2c1` (configuration not stated): the Relative potency result in experiment [14] is “inactive”. This molecule also showed an IC50 in [7] of 300 µM.
As for `Cc1c(NCC(=O)O)cccc1C(=O)c1ccc(Cl)cc1`, the half-inhibitory concentration (IC50) in experiment [7] was > 1000 µM.
Take `Cc1ccc(NC(C)C(=O)O)c(C(=O)c2ccccc2)c1` (configuration not stated): the Change is recorded as -31% in [10] and -15% in experiment [4]. In experiment [3], the Efficacy ratio is 1.52.
`O=C(O)CNc1ccccc1C(=O)c1ccccc1`: the Efficacy ratio in experiment [3] (316 mg/kg) was 0.98 and 1.47.
With `CC(Oc1ccccc1C(=O)c1ccccc1)C(=O)O` (configuration not stated), in [3] (316 mg/kg), the Efficacy ratio was 0.98 and 1.65.
